The results in this text go back to US8252832B2, “Kinesin inhibitors as cancer therapeutics” (Novartis AG, priority 2007, dated 2012).

Like-named read-outs stand apart in the source and are kept apart here.

Data set [1] deals with NCI60 panel of cell lines. Kind of data set: CellTiter-Glo, NCI60 panel, mean of panel. Format: cell-based. An excerpt:
(§1) Identification of tumor types that are the most sensitive to the KSP inhibitors of the present invention can be accomplished using an unbiased approach that uses several cell-based assays. The assays chosen were as follows: • CellTiter-Glo®. This is an assay designed to measure ATP concentration in a cell culture, and can be correlated to cell number. Briefly CellTiter-Glo® (Promega Corporation) is a homogeneous method using the single CellTiter-Glo® reagent to detect ATP wherein ATP in the assay drives the activity of a thermostable luciferase to create a luminescent signal which can then be measured and correlated with the number of viable cells. Briefly, for adherent cells, 1,000 to 5,000 cells/well were plated in 96-well plates (100 μl/well) and let to adhere for 24 hours before being treated with drug. For non-adherent cells, 1,000 to 10,000 cells/well were plated in 96-well plates (100 μl/well) and immediately treated with drug. Drug dilutions were prepared in DMSO at 1000 times the final concentration. These dilutions were then diluted 1/100 in growth media before being added to the cells (11 μl/well) to achieve the desired final concentration. […] The enzymatic reaction is coupled to a chemical reaction that uses a tetrazolium salt to form a formazan that is red and can be detected by its absorbance at 490 nm. […]
(In general: Cellular ATP, detected with luciferase, serves as a proxy for viable cell number.)

Data set [2] is described as follows: In vivo pharmacokinetic parameters (clearance, half-life, AUC).
In data set [3] the test system is cell lines derived from hematological malignancies. Kind of data set: CellTiter-Glo, hematologic malignancy panel, mean of panel. Format: cell-based.
Description: as §1

The mark [4] stands for this setting: GI50 in nM, read-out: Log(GI50), arithmetic mean of panel (converted).
[5] abbreviates: read-out: GI50, geometric mean of panel.

A word on the GI50: it is the concentration giving 50% growth inhibition. For orientation: AUC means concentration integrated over time. A higher AUC goes with high exposure. Broadly, the half-life is the time in which the quantity being followed falls by half. Broadly, the clearance is a measure of how efficiently the substance is removed, as volume per time. For `CC(C)(C)[C@H](c1nc(-c2cc(F)ccc2F)cn1Cc1ccccc1)N(CC[C@H](N)CF)C(=O)CO` [Compound IIa], the 50% growth inhibitory concentration (GI50) is 2.14 nM in data set [1] (setting [4]), 2.14 nM in data set [1] (setting [5]), 0.339 nM in data set [3] (setting [4]) and 0.34 nM in data set [3] (setting [5]). In data set [2], the AUC is 1930 ng·h/mL. Also, in data set [2], the half-life came out at 1.83 h. Moreover, the clearance in data set [2] (read-out: In vivo Clearance rate) is 41 mL/min/kg.
